For one assay, the target named is B-Raf delta1-415 (Homo sapiens, UniProt P15056). In words: B-Raf kinase inhibition (MAPH filter plate, 33P-ATP, MEK1 substrate). The settings on record: read-out: Biochemical IC50 B-Raf. From the text:
We characterized the in vitro inhibitory activity against protein kinases of compounds of the present invention by determining their IC50 values (see Table 2).
Kinase: B-Raf delta1-415 (e.g., Upstate Cat. No. 14-530)
Reaction Temperature: room temperature
Assay Plate: 96 well U bottom plate (Greiner, 650161)
MultiScreen-PH Plate: 96 well MAPH Filter Plates (Millipore, MAPHNOB50)
Filter Washing Solution: 0.75% H3PO4
Szintilation Liquid: Supermix Liquid Szintillator (PerkinElmer, 1200-439)
Negative Control (C−): 100 mM EDTA, no Inhibitor
Positive Control (C+): no Inhibitor
Reaction Buffer: 20 mM Mops, pH 7.0 • 10 mM MgCl2 • 0.4 mM MnCl2 • 100 mM NaCl • 1 mM DTT • 0.01% NP40
Final Assay Concentrations:
Kinase: Kinase conc. yielding 50% substrate turnover as determined in titration experiment.
Adenosine 5′-[γ-^33P]triphosphate: 12.5 μCi/ml (Amersham Biosciences, BF1000)
Pipetting Sequence: • 1) Add 10 μl 4-fold concentrated substrate in 3-fold concentrated reaction buffer to each well of assay plate • 2) Add 10 μl 4-fold concentrated inhibitor in 4% DMSO in H2O to each well except to C− and C+ wells (starting point: final inhibitor concentration 10 μM; IC50 determination based on dilution series) • 3) Add 10 μl 4% DMSO in H2O to C− and C+ wells • 4) Add 10 μl 500 mM EDTA in H2O to C− wells • 5) Add 10 μl 50 μCi/ml adenosine 5′-[γ-^33P]triphosphate in H2O+4-fold cold ATP to each well • 6) Add 10 μl 4-fold concentrated kinase in reaction buffer to each well • 7) Incubate 1 hr at room temperature • 8) Add 10 μl 50 mM EDTA in H2O to each well except to C− wells • 9) Prepare MAPH plates by adding 200 μl 0.75% H3PO4 to each well • 10) Exhaust 0.75% H3PO4 using Millipore vacuum station • 11) Add 60 μl 0.75% H3PO4 to each well of MAPH filter plate • 12) Transfer 30 μl sample per well from assay plate to corresponding well of MAPH filter plate • 13) Incubate 30 min at room temperature • 14) Wash each well of MAPH filter plates 3× with 200 μl 0.75% H3PO4 using Millipore vacuum station • 15) Add 20 μl scintillation liquid to each well of MAPH filter plate • 16) Seal MAPH filter plate • 17) Store MAPH filter plate 30 min in darkness • 18) Quantify radioactivity using scintillation counter (MicroBeta, Perkin-Elmer)

A further assay has as its system HT-29 tumor cells. Briefly: Anti-proliferative activity, SRB assay. Conditions: Homo sapiens, HT-29, 72 h, 72 hours exposure, read-out: CELLULAR IC50 HT-29. Format: cell-based, human. The method, then: We observed the surprising finding that compounds of the invention were useful in inhibiting proliferation of HT-29 tumor cells (see Table 3).
3,000-15,000 cells/well were exposed to the test compounds at various concentrations appropriate to determine an IC50, for 72 hours, and cell proliferation was measured using the SRB assay according to Shekan et al (J Natl Cancer Inst (1990) 82, 1107-112) in order to estimate the IC50 values shown in Table 3. Briefly, cells were plated in 96 well dishes 24 hours prior to compound addition. The assay was terminated with the addition of cold TCA to a final concentration of 10% and the plates were incubated for one hour at 4° C. The plates were then washed 5 times with water and 100 μl of a Sulforhodamine B solution (4%) was added to each well. The plate was then incubated for 10 minutes at room temperature before removal of unbound dye by washing with 1% acetic acid. The bound dye was solubilized with 10 mM Trizma base and the absorbance read at OD570. Inhibitory activity of the compounds was calculated as % inhibition of cell proliferation compared to cells treated with the solvent (DMSO).
(In general: The SRB assay estimates cell density from bound dye.)

Among the data in patent publication US8518958B2, “Pyrido [2,3-D] pyrimidines and their use as kinase inhibitors” (Forma Therapeutics, Inc., priority 2006, dated 2013) are IC50 values, retold here.

Chain of B-Raf delta1-415 (P15056 416-766): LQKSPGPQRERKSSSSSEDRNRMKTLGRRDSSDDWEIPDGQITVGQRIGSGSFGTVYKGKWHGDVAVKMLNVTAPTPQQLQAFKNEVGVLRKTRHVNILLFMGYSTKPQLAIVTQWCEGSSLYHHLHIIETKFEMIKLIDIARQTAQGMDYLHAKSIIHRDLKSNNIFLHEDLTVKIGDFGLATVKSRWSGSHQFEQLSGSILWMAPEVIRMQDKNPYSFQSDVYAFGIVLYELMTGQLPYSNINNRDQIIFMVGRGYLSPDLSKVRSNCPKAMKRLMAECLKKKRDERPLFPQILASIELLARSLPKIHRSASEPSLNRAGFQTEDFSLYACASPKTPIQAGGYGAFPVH

For orientation: IC50 means the concentration at which inhibition is half-maximal. With `CC(C)On1c(=O)c(-c2ccccc2Cl)cc2cnc(Nc3ccccc3)nc21` [Compound 65], the IC50 on B-Raf delta1-415 and with HT-29 tumor cells was over 10000 nM throughout.

In the case of `NCCCCOn1c(=O)c(-c2c(Cl)cccc2Cl)cc2cnc(Nc3ccccc3)nc21` [Compound 66, 8-(4-Aminobutyl)oxy-6-(2,6-dichlorophenyl)-2-phenylamino-pyrido[2,3-d]pyrimidin-7-one], at B-Raf delta1-415, the IC50 is under 100 nM. Consider `COc1cccc(Nc2ncc3cc(-c4c(F)cccc4Cl)c(=O)n(OC[C@H](O)CO)c3n2)c1` [Compound 76, 6-(2-Chloro-6-fluorophenyl)-8-(2-(R)-2,3-dihydroxypropyl)oxy-2-(3-methoxyphenyl)amino-pyrido[2,3-d]pyrimidin-7-one], for which the IC50 was under 500 nM at B-Raf delta1-415 and under 1000 nM with HT-29 tumor cells. In the case of `COC(=O)c1cc(Nc2ncc3cc(-c4c(C)cccc4C)c(=O)n(OC)c3n2)cn1C` [Compound 79], the IC50 is under 500 nM on B-Raf delta1-415 and under 1000 nM with HT-29 tumor cells.

As for `COn1c(=O)c(-c2c(Cl)cccc2Cl)cc2cnc(NC(=O)C3CC3)nc21` [Compound 80, 2-Cyclopropylcarbonylamino-6-(2,6-dichlorophenyl)-8-methoxy-pyrido[2,3-d]pyrimidin-7-one], the IC50 on B-Raf delta1-415 is over 1000 nM; in the assay on HT-29 tumor cells, over 10000 nM. On to `CCN(CC)CCNC(=O)c1cc(Nc2ncc3cc(-c4c(Cl)cccc4Cl)c(=O)n(OC)c3n2)cn1C` [Compound 81, 6-(2,6-Dichlorophenyl)-2-(5-(2-diethylaminoethyl)aminocarbonyl-1-methyl-pyrrol-3-yl)-amino-8-methoxy-pyrido[2,3-d]pyrimidin-7-one], for which the IC50 is under 500 nM on B-Raf delta1-415 and under 1000 nM in the assay with HT-29 tumor cells.

In the case of `COn1c(=O)c(-c2c(Cl)cccc2Cl)cc2cnc(Nc3cc(C(=O)NCCO)n(C)c3)nc21` [Compound 82, 6-(2,6-Dichlorophenyl)-2-(5-(2-hydroxyethyl)aminocarbonyl-1-methyl-pyrrol-3-yl)-amino-8-methoxy-pyrido[2,3-d]pyrimidin-7-one], the IC50 on B-Raf delta1-415 was under 500 nM; with HT-29 tumor cells it was under 1000 nM. `COn1c(=O)c(-c2c(C)cccc2C)cc2cnc(Nc3cc(C(=O)NCCO)n(C)c3)nc21` [Compound 83, 6-(2,6-Dimethylphenyl)-2-(5-(2-hydroxyethyl)aminocarbonyl-1-methyl-pyrrol-3-yl)-amino-8-methoxy-pyrido[2,3-d]pyrimidin-7-one]: the IC50 on B-Raf delta1-415 is under 500 nM; in the assay with HT-29 tumor cells, under 1000 nM.

As for `CCN(CC)CCNC(=O)c1cc(Nc2ncc3cc(-c4c(C)cccc4C)c(=O)n(OC)c3n2)cn1C` [Compound 84, 6-(2,6-Dimethylphenyl)-2-(5-(2-diethylaminoethyl)aminocarbonyl-1-methyl-pyrrol-3-yl)-amino-8-methoxy-pyrido[2,3-d]pyrimidin-7-one], the IC50 on B-Raf delta1-415 is under 500 nM; in the assay on HT-29 tumor cells it was under 1000 nM. The like results for `COn1c(=O)c(-c2c(Cl)cccc2Cl)cc2cnc(Nc3ccon3)nc21` [Compound 85, 6-(2,6-Dichlorophenyl)-2-(isoxazol-3-yl)-amino-8-methoxy-pyrido[2,3-d]pyrimidin-7-one] were, in that order, under 500 nM and under 10000 nM. For `COn1c(=O)c(-c2c(Cl)cccc2Cl)cc2cnc(Nc3ccc(C#N)cc3)nc21` [Compound 86, 2-(4-Cyanophenyl)-amino-6-(2,6-dichlorophenyl)-8-methoxy-pyrido[2,3-d]pyrimidin-7-one], the IC50 at B-Raf delta1-415 and in the assay with HT-29 tumor cells was under 1000 nM each time.

With `COn1c(=O)c(-c2c(C)cccc2C)cc2cnc(Nc3cc(C(=O)NCCN4CCCC4)n(C)c3)nc21` [Compound 87, 6-(2,6-Dimethylphenyl)-8-methoxy-2-(5-(2-pyrrolidinoethyl)aminocarbonyl-1-methyl-pyrrol-3-yl)-amino-pyrido[2,3-d]pyrimidin-7-one], the concentration for half-maximal inhibition (IC50) on B-Raf delta1-415 was under 500 nM; with HT-29 tumor cells, under 1000 nM.

As to `COn1c(=O)c(-c2c(Cl)cccc2Cl)cc2cnc(Nc3cc[nH]n3)nc21` [Compound 88, 6-(2,6-Dichlorophenyl)-8-methoxy-2-(pyrazol-3-yl)-amino-pyrido[2,3-d]pyrimidin-7-one], the IC50 was under 500 nM at B-Raf delta1-415 and under 10000 nM in the assay with HT-29 tumor cells.

For the compound `COn1c(=O)c(-c2c(Cl)cccc2Cl)cc2cnc(Nc3ccc(OCCO)cc3)nc21` [Compound 89, 6-(2,6-Dichlorophenyl)-2-(4-(2-hydroxyethyl)oxyphenyl) amino-8-methoxy-pyrido[2,3-d]pyrimidin-7-one], the IC50 at B-Raf delta1-415 was under 100 nM; in the assay with HT-29 tumor cells, under 1000 nM.

For the compound `COn1c(=O)c(-c2c(Cl)cccc2Cl)cc2cnc(Nc3nncs3)nc21` [Compound 90, 6-(2,6-Dichlorophenyl)-8-methoxy-2-(1-thia-3,4-diazol-2-yl)-amino-pyrido[2,3-d]pyrimidin-7-one], the IC50 is under 500 nM on B-Raf delta1-415 and under 10000 nM in the assay on HT-29 tumor cells. The like results for `COn1c(=O)c(-c2c(Cl)cccc2Cl)cc2cnc(Nc3ccc(OCCN4CCCC4)cc3)nc21` [Compound 91, 6-(2,6-Dichlorophenyl)-8-methoxy-2-(4-(2-pyrrolidinoethyl)oxyphenyl) amino-pyrido[2,3-d]pyrimidin-7-one] were, in that order, under 500 nM and under 1000 nM. Turning to `COn1c(=O)c(-c2c(Cl)cccc2Cl)cc2cnc(Nc3ccc(OCCN4CC[C@H](O)C4)cc3)nc21` [Compound 92, 6-(2,6-Dichlorophenyl)-2-(4-(2-(3-(S)-hydroxypyrrolidino)ethyl)oxyphenyl)amino-8-methoxy-pyrido[2,3-d]pyrimidin-7-one], the IC50 was under 100 nM on B-Raf delta1-415 and under 1000 nM with HT-29 tumor cells. Regarding `COn1c(=O)c(-c2c(Cl)cccc2Cl)cc2cnc(Nc3ccc(OCC(O)CO)cc3)nc21` (stereo not shown) [Compound 93, 6-(2,6-Dichlorophenyl)-2-(4-(2,3-dihydroxypropyl)oxyphenyl) amino-8-methoxy-pyrido[2,3-d]pyrimidin-7-one], the 50% inhibitory concentration (IC50) was under 500 nM on B-Raf delta1-415 and under 1000 nM in the assay with HT-29 tumor cells. `COn1c(=O)c(-c2c(Cl)cccc2Cl)cc2cnc(Nc3cc(C(=O)NCCN4CCCC4)n(C)c3)nc21` [Compound 94, 6-(2,6-Dichlorophenyl)-8-methoxy-2-(5-(2-pyrrolidinoethyl)aminocarbonyl-1-methyl-pyrrol-3-yl)-amino-pyrido[2,3-d]pyrimidin-7-one]: the IC50 on B-Raf delta1-415 was under 500 nM; in the assay with HT-29 tumor cells, under 1000 nM. As to `COn1c(=O)c(-c2c(Cl)cccc2Cl)cc2cnc(Nc3cc(C(=O)NCCCN4CCCC4)n(C)c3)nc21` [Compound 95], the IC50 at B-Raf delta1-415 was under 500 nM; with HT-29 tumor cells it was under 1000 nM.

In the case of `Cn1cc(Nc2ncc3cc(-c4c(F)cccc4Cl)c(=O)n(OCC4CCOCC4)c3n2)cc1C(=O)N1CCNCC1` [Compound 224, 6-(2-Chloro-6-fluorophenyl)-2-(5-(piperazinocarbonyl)-1-methyl-pyrrol-3-yl)-amino-8-(tetrahydropyran-4-ylmethyl)oxy-pyrido[2,3-d]pyrimidin-7-one], the IC50 with HT-29 tumor cells is under 1000 nM. For the compound `COc1cc(Nc2ncc3cc(-c4c(Cl)cccc4Cl)c(=O)n(OC)c3n2)ccc1N1CCNCC1` [Compound 227, 6-(2,6-Dichlorophenyl)-8-methoxy-2-(3-methoxy-4-piperazino-phenyl)-amino-pyrido[2,3-d]pyrimidin-7-one], in the assay with HT-29 tumor cells, the IC50 was under 1000 nM. Regarding `CN1CCN(c2ccc(Nc3ncc4ccc(=O)n(OC(C)(C)C)c4n3)cc2)CC1` [Compound 233], on B-Raf delta1-415, the IC50 is over 1000 nM.

`CN1CCN(c2ccc(Nc3ncc4ccc(=O)n(OC5CCCCC5)c4n3)cc2)CC1` [Compound 236]: the IC50 in the assay on HT-29 tumor cells is under 1000 nM.
